US9932327B2, “Rohitukine analogs as cyclin-dependent kinase inhibitors and a process for the preparation thereof” (COUNCIL OF SCIENTIFIC AND INDUSTRIAL RESEARCH, priority 2013, dated 2018)
pIC50: −log10 of the molar value. Values after ≈ are worked out from the molar mass of the structure shown. Like-named read-outs stand apart in the source and are kept apart here.

Experiments:
[1] = test system: HL-60 (Leukemia); assay: Cytotoxicity, MTT assay, HL-60; type: cell-based; conditions: Homo sapiens; for inhibition at 10 µM: read-out: Cell Growth Inhibition (%)
Procedure: (§1) Compounds proposed in the present invention were evaluated for their cytotoxic effect against panel of six cancer cell line viz. HL-60 (Leukemia), PC-3 (Prostate), A-375 (Melanoma), MIAPaCa-2 (pancreatic), MCF-7 (Breast) and Caco-2 (Colon) using MTT assay. In each well of a 96-well plate, 3×10^3 cells were grown in 100 μL of medium. After 24 h, each test molecules were added to achieve a final concentration of 10 to 0.01 μmol/L, respectively. After 48 h of treatment, 20 μL of 2.5 mg/mL MTT (Organics Research, Inc.) solution in phosphate buffer saline was added to each well. After 48 h, supernatant was removed and formazan crystals were dissolved in 200 μL of DMSO. Absorbance was then measured at 570 nm using an absorbance plate reader (Bio-Rad Microplate Reader). Data are expressed as the percentage of viable cells in treated relative to non-treated conditions.

[2] = test system: PC-3 (Prostate); assay: Cytotoxicity, MTT assay, PC-3; type: cell-based; conditions: for inhibition at 10 µM: read-out: Cell Growth Inhibition (%)
Procedure: as §1

[3] = test system: A-375 (Melanoma); assay: Cytotoxicity, MTT assay, A-375; type: cell-based; conditions: Homo sapiens; for inhibition at 10 µM: read-out: Cell Growth Inhibition (%)
Procedure: as §1

[4] = test system: MIAPaCa-2 (pancreatic); assay: Cytotoxicity, MTT assay, MIAPaCa-2; type: cell-based; conditions: Homo sapiens, MIA PaCa-2, read-out: Cell Growth Inhibition (%)
Procedure: as §1

[5] = test system: MCF-7 (Breast); assay: Cytotoxicity, MTT assay, MCF-7; type: cell-based; conditions: Homo sapiens; for inhibition at 10 µM: MCF7, 10 μM, read-out: Cell Growth Inhibition (%); for pIC50: MCF7
Procedure: as §1

[6] = test system: Caco-2 (Colon); assay: Cytotoxicity, MTT assay, Caco-2; type: cell-based; conditions: Homo sapiens; for inhibition at 10 µM: read-out: Cell Growth Inhibition (%)
Procedure: as §1

[7] = molecular target: CDK-2/cyclin A (Homo sapiens (Human), UniProt P24941); assay: Inhibition of CDK-2/cyclin A; type: biochemical
[8] = molecular target: CDK-9/Cyclin T1 (Homo sapiens (Human), UniProt P50750); assay: Inhibition of CDK-9/cyclin T1; conditions: IC50 (nM) CDK-9/T1
[9] = test system: Ehrlich solid tumor (EAC cells); assay: In vivo anticancer activity in Ehrlich solid tumor mice model; design: species or system Swiss mice
Procedure: Ehrlich ascites carcinoma (EAC) cells were collected from the peritoneal cavity of the swiss mice harbouring 8-10 days old ascitic tumor. 1×10^7 EAC cells were injected intramuscularly in right thigh of 31 Swiss male mice selected for the experiment on day 0. The next day, animals were randomized and divided into four groups. Three treatment groups contained 7 animals each and one control group contained 10 animals. Treatment was given as follows:
Group I: Compound 33 (50 mg/kg i/p) from day 1-9.
Group II: Compound 33 (70 mg/kg i/p) from day 1-9.
The third treatment group was treated with 5-fluorouracil (22 mg/kg, i.p) from day 1-9 and it served as positive control. The control group was similarly administered normal saline (0.2 ml, i.p.) from day 1-9. On day 9 & 13, tumor bearing thigh of each animal was shaved and longest and shortest diameters of the tumor were measured with the help of vernier caliper. Tumor weight of each animal was calculated using the following formula.
The percent tumor growth inhibition was calculated on day 13 by comparing the average values of treated groups with that of control group. Tumor growth in saline treated control animals was taken to be 100%.

[10] = Thermodynamic equilibrium solubility; type: physicochemical; conditions: 25 °C, thermodynamic from solid
Procedure: The compounds were first dissolved in methanol to prepare stock solutions (100 and 1000 μg/mL). Different concentrations of stock solutions were pipetted into the 96-well plates and the solvent was evaporated to ensure that solid drug was present in the beginning of the experiment. […] The plates were kept overnight for equilibration of drug in medium. Later, the plates were centrifuged at 3000 rpm for 15 min (Jouan centrifuge BR4i). Supernatant (50 μl) was pipetted into UV 96-well plates (Corning® 96 Well Clear Flat Bottom UV-Transparent Microplate) for analyses with plate reader (SpectraMax Plus384) at λmax of 350 nm. The analyses were performed in triplicate for each compound. The solubility curve of concentration (μg/mL) vs absorbance was plotted to find out saturation point and the corresponding concentration was noted (Heikkilä, T. et al. Int. J. Pharm. 2011, 405, 132).

[11] = test system: CDK1/cyclin B; conditions: Gray, N. et al. Curr. Med. Chem. 1999, 6, 859; cited from earlier work
[12] = 22 mg/kg i/p day 1-9, positive control
[13] = water, 25±1° C., read-out: Solubility in μg/mL, Water
[14] = phosphate buffer saline (PBS), aqueous buffer, read-out: Solubility in μg/mL, PBS
[15] = simulated gastric fluid (SGF), simulated gastric fluid, read-out: Solubility in μg/mL, SGF
[16] = simulated intestinal fluid (SIF), fassgf or other biorelevant, read-out: Solubility in μg/mL, SIF

CDK-9/Cyclin T1, sequence (P50750 whole entry): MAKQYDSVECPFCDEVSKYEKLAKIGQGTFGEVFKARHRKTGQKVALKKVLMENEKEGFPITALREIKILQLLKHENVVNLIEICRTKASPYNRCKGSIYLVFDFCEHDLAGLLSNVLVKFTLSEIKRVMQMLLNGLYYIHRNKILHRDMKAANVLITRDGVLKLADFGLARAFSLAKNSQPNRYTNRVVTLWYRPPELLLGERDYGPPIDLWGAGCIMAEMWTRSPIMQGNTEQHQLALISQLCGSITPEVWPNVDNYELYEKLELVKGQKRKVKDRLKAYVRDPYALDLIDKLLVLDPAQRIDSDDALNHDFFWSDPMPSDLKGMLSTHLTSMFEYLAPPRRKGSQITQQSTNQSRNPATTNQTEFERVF
CDK-9/Cyclin T1, sequence (O60563 whole entry partner): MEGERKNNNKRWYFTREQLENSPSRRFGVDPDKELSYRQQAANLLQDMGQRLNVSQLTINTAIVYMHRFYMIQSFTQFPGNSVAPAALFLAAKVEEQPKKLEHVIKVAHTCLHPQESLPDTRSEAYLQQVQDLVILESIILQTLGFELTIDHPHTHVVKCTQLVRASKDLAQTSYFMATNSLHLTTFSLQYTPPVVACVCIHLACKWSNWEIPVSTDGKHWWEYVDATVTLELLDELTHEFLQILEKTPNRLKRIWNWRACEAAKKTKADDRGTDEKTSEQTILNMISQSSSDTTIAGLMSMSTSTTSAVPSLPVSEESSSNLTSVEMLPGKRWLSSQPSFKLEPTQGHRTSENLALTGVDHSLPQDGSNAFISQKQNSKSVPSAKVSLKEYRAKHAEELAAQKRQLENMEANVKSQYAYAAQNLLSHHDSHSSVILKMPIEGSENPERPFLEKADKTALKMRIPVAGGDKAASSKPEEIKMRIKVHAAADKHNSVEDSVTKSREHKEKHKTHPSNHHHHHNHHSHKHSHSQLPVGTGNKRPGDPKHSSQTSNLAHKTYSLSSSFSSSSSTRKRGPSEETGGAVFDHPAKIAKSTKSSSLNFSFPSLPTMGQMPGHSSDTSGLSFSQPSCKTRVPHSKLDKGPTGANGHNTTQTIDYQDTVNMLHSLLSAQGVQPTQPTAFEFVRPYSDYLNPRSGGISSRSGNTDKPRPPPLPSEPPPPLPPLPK

IC50 [7] [nM]	IC50 [8] [nM]	SMILES	pIC50 [1]	inhibition at 10 µM [1] [%]	inhibition at 10 µM [2] [%]	inhibition at 10 µM [3] [%]	inhibition at 10 µM [4] [%]	inhibition at 10 µM [5] [%]	inhibition at 10 µM [6] [%]	pIC50 [2]	pIC50 [3]	pIC50 [5]	solubility [10, 13] [µg/mL]	solubility [10, 14] [µg/mL]	solubility [10, 15] [µg/mL]	solubility [10, 16] [µg/mL]	other results
> 10000	550	Cc1cc(=O)c2c(O)cc(O)c(C3CCN(C)CC3O)c2o1 (stereo not drawn) [Compound 1, 5,7-dihydroxy-8-(3-hydroxy-1-methylpiperidin-4-yl)-2-methyl-4H-chromen-4-one, reference compound]	5.22	83.3	32.9	41.2	1.46	15.4	11.9								
		O=c1[nH]cc(F)c(=O)[nH]1 [Compound 5-FU, 5-fluorouracil, reference compound]															Day 13 % Tumor Growth Inhibition [9, 12]: 58.50%; Day 13 Av. Tumor weights [9, 12]: 613.71 mg; Mortality [9, 12]: 0/7
		Cc1oc2c(C3CCN(C)CC3O)c(O)cc(O)c2c(=O)c1C(O)c1cccc(Cl)c1 (stereo not drawn) [Compound 17, 3-((3-Chlorophenyl)(hydroxy)methyl)-5,7-dihydroxy-8-(3-hydroxy-1-methylpiperidin-4-yl)-2-methyl-4H-chromen-4-one]		22.2	31	34.9	1.52	5.01	4.42								
		Cc1oc2c(C3CCN(C)CC3O)c(O)cc(O)c2c(=O)c1C(O)c1c(F)cccc1Cl (stereo not drawn) [Compound 21, 3-((2-Chloro-6-fluorophenyl)(hydroxy)methyl)-5,7-dihydroxy-8-(3-hydroxy-1-methylpiperidin-4-yl)-2-methyl-4H-chromen-4-one]		25.4	72.5	20.8	8.58	13.6	5.94								
		CN1CCC(c2c(O)cc(O)c3c(=O)cc(/C=C/c4cccc(Cl)c4)oc23)C(O)C1 (stereo not drawn) [Compound 28, 2-(3-Chlorostyryl)-5,7-dihydroxy-8-(3-hydroxy-1-methylpiperidin-4-yl)-4H-chromen-4-one]		24.3	53.7	65.9	40.3	80.4	27.5	5.00	5.40	5.70					
		CN1CCC(c2c(O)cc(O)c3c(=O)cc(/C=C/c4c5ccccc5cc5ccccc45)oc23)C(O)C1 (stereo not drawn) [Compound 29, 2-((E)-2-(Anthracen-10-yl)vinyl)-5,7-dihydroxy-8-(3-hydroxy-1-methylpiperidin-4-yl)-4H-chromen-4-one]		12.1	50.5	4.96	17	12.7	0	4.92							
		CN1CCC(c2c(O)cc(O)c3c(=O)cc(/C=C/c4ccccc4F)oc23)C(O)C1 (stereo not drawn) [Compound 30, 2-(2-Fluorostyryl)-5,7-dihydroxy-8-(3-hydroxy-1-methylpiperidin-4-yl)-4H-chromen-4-one]	5.10	80.5	72.2	54.1	21.3	81.1	51	5.15	5.15	5.52					pIC50 [6]: 5.10
608	12	CN1CCC(c2c(O)cc(O)c3c(=O)cc(/C=C/c4c(F)c(F)c(F)c(F)c4F)oc23)C(O)C1 (stereo not drawn) [Compound 34, 2-(2,3,4,5,6-pentafluorostyryl)-5,7-dihydroxy-8-(3-hydroxy-1-methylpiperidin-4-yl)-4H-chromen-4-one]	5.52							4.52	5.10	5.40	5 (≈ 10.3 µM)	10 (≈ 20.7 µM)	80 (≈ 165 µM)	20 (≈ 41.4 µM)	pIC50 [6]: 5.15
466	30	CN1CCC(c2c(O)cc(O)c3c(=O)cc(/C=C/c4cccc(F)c4)oc23)C(O)C1 (stereo not drawn) [Compound 35, 2-(3-fluorostyryl)-5,7-dihydroxy-8-(3-hydroxy-1-methylpiperidin-4-yl)-4H-chromen-4-one]															
		CN1CCC(c2c(O)cc(O)c3c(=O)cc(/C=C/c4c(Cl)cccc4Cl)oc23)C(O)C1.Cl (stereo not drawn) [Hydrochloride salt of 33, 2-(2,6-dichlorostyryl)-5,7-dihydroxy-8-(3-hydroxy-1-methylpiperidin-4-yl)-4H-chromen-4-one hydrochloride]											> 1500	40	40	10	
		CN1CCC(c2c(O)cc(O)c3c(=O)cc(/C=C/c4c(F)c(F)c(F)c(F)c4F)oc23)C(O)C1.Cl (stereo not drawn) [Hydrochloride salt of 34, 2-(2,3,4,5,6-pentafluorostyryl)-5,7-dihydroxy-8-(3-hydroxy-1-methylpiperidin-4-yl)-4H-chromen-4-one hydrochloride]											> 1500	40	80	40	
		CN(C)c1ncnc2nc[nH]c12 [dimethylaminopurine]															pIC50 [11]: 3.92

SMILES	IC50 [7] [nM]	IC50 [8] [nM]	pIC50 [1]	inhibition at 10 µM [1] [%]	inhibition at 10 µM [2] [%]	inhibition at 10 µM [3] [%]	inhibition at 10 µM [4] [%]	inhibition at 10 µM [5] [%]	inhibition at 10 µM [6] [%]	pIC50 [2]	pIC50 [3]	pIC50 [5]	solubility [10, 13] [µg/mL]	solubility [10, 14] [µg/mL]	solubility [10, 15] [µg/mL]	solubility [10, 16] [µg/mL]	other results
CN1CCC(c2c(O)cc(O)c3c(=O)cc(/C=C/c4c(Cl)cccc4Cl)oc23)C(O)C1 (stereo not drawn) [Compound 33, 2-(2,6-dichlorostyryl)-5,7-dihydroxy-8-(3-hydroxy-1-methylpiperidin-4-yl)-4H-chromen-4-one]	16	2	6.05							4.39	5.10	5.40	5 (≈ 10.8 µM)	5 (≈ 10.8 µM)	40 (≈ 86.5 µM)	20 (≈ 43.3 µM)	pIC50 [6]: 5.15; Day 13 % Tumor Growth Inhibition ([9]; 50 mg/kg i/p day 1-9): 33.11%; Day 13 Av. Tumor weights ([9]; 50 mg/kg i/p day 1-9): 989.12 mg; Mortality ([9]; 50 mg/kg i/p day 1-9): 0/7; Day 13 % Tumor Growth Inhibition ([9]; 70 mg/kg i/p day 1-9): 37.65%; Day 13 Av. Tumor weights ([9]; 70 mg/kg i/p day 1-9): 922.0 mg; Mortality ([9]; 70 mg/kg i/p day 1-9): 0/7
